Assay results reported in ChEMBL document CHEMBL1255168, “1-Aryl-3-(1-acylpiperidin-4-yl)urea inhibitors of human and murine soluble epoxide hydrolase: structure-activity relationships, pharmacokinetics, and reduction of inflammatory pain” (J Med Chem, 2010).

molecular target: T1, Bifunctional epoxide hydrolase 2 (Mus musculus, UniProt P34914)
T1 sequence (P34914 whole entry): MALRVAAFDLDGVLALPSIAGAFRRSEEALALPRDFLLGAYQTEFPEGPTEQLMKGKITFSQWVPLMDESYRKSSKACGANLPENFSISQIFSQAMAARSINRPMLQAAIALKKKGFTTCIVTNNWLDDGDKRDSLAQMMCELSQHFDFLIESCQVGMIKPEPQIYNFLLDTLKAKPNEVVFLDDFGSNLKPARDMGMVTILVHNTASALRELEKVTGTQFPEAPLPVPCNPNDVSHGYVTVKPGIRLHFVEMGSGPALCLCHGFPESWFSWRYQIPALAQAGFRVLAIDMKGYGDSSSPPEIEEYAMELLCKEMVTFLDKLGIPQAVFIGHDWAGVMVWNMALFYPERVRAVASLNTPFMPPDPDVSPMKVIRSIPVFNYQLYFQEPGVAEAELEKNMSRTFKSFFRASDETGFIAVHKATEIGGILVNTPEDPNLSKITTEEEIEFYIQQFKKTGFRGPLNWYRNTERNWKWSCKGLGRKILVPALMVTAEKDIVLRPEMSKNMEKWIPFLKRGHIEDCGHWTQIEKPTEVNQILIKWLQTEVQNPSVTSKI
Description: Inhibition of mouse recombinant soluble epoxide hydrolase by fluorescence assay

SMILES | IC50
O=C(Nc1ccc(OC(F)(F)F)cc1)NC1CCN(C(=O)CN2CCN(Cc3ccccc3)CC2)CC1 | 18 nM
CCC(=O)N1CCC(NC(=O)Nc2ccc3c(c2)OCO3)CC1 | 100 nM
CCC(=O)N1CCC(NC(=O)Nc2ccc(C(=O)OC)cc2)CC1 | 64 nM

molecular target: T2, Bifunctional epoxide hydrolase 2 (Homo sapiens, UniProt P34913)
T2 sequence (P34913 whole entry): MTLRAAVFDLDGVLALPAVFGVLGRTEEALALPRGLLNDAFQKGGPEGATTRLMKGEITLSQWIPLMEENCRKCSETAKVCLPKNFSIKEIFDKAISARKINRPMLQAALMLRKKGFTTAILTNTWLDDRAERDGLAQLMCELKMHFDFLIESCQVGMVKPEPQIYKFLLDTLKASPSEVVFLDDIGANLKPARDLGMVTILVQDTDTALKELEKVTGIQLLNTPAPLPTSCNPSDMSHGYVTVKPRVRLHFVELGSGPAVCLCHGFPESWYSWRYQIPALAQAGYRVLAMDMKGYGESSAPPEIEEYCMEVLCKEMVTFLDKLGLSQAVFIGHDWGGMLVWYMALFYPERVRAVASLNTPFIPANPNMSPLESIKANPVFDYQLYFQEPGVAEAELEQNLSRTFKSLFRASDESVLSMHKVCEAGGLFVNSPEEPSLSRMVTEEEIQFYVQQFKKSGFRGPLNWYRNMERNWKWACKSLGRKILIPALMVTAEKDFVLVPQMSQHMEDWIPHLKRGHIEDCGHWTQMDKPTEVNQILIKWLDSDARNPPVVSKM
Description: Inhibition of human recombinant soluble epoxide hydrolase by fluorescence assay

SMILES | IC50
O=C(Nc1ccc(OC(F)(F)F)cc1)NC1CCN(C(=O)CN2CCN(Cc3ccccc3)CC2)CC1 | 1.5 nM
CCC(=O)N1CCC(NC(=O)Nc2ccc3c(c2)OCO3)CC1 | 61 nM
CCC(=O)N1CCC(NC(=O)Nc2cc(OC)c(OC)c(OC)c2)CC1 | > 5000 nM
CCC(=O)N1CCC(NC(=O)Nc2ccc(C(=O)OC)cc2)CC1 | 140 nM
